Patent US20190142800A1, “SYNERGISTIC ANTIFUNGAL COMPOSITIONS AND METHODS THEREOF” (VYOME THERAPEUTICS LIMITED, priority 2016, published 2019)

Tests used:
[1] = tested on: Trichophyton rubrum (ATCC-28188); assay: Checkerboard assay of fatty acid/ester with antifungals on Trichophyton rubrum (ATCC 28188); format: cell-based; set-up: key to FIC index: FIC index = sum of FICs; FIC = agent conc in well / agent MIC; conditions: for MIC: Trichophyton rubrum, ATCC28188, agent alone
[2] = tested on: azole resistant C. albicans MTCC 227; assay: Checkerboard assay on azole resistant C. albicans MTCC 227; format: cell-based, Candida albicans; conditions: for MIC: Candida albicans, MTCC227, agent alone
Description: (§1) The synergy is measured by determining the fractional inhibitory concentration (FIC) value of the combination. This experimental set up, called checkerboard method, allows measurement of a desired effect (inhibition of fungal growth in this case) at different combinations of various concentrations of the two agents (antifungal agent and fatty acid/ester). […] No agent is added to the penultimate column on the right and the bottom row. The final column on the right is used for growth control (only inoculum in broth) and sterility control (broth alone, no inoculum). […] FIC values for both agents in a particular well were calculated in this way followed by determination of the FIC index (sum of the FICs of each drug in the concerned well). […] Agents Chemother.
(§2) Using the checkerboard layout experimental setup described above (FIG. 1A), various medium-chain fatty acids were tested for their ability to potentiate the activity of a known antifungal agent. Concentrations above and below the MIC of each test agent were tested using serial dilution. The same procedure was expanded to test combinations of various medium-chain fatty acids C-1 to C-14 (such caprylic acid, undecylenic acid and lauric acid) and esters thereof, with antifungal agents from various classes including azoles, allylamines, benzylamines, zinc pyrithione and piroctone olamine against both susceptible and resistant Trichophyton spp. (filamentous fungus) and Candida spp. (yeast).
(§3) Potentiation of the activity of antimycotic agents using ester derivatives of medium chain fatty acids was tested in a standard, well accepted in vitro assay system to check for synergy. This experimental set up, called checkerboard method, allows measurement of a desired effect (inhibition of fungal growth in this case) at different combinations of various concentrations of two agents. A chosen medium chain fatty acid (C-1 to C-14) or its ester derivative was tested for its ability to potentiate the activity of a known antifungal agent (various classes) using the checkerboard layout. Various concentrations above and below the MIC of each test agent were tested using serial dilution in Sabouraud dextrose broth. […] FIC values for both test agents in a particular well are calculated in this way followed by determination of the FIC index (sum of the FICs of each drug in the concerned well).

[3] = tested on: C. albicans; assay: Checkerboard assay of clotrimazole and oleic acid (C18) in C. albicans; format: cell-based, Candida albicans; conditions: clotrimazole + oleic acid, FIGS. 1B and 1C
Description: (§4) The synergy is measured by determining the fractional inhibitory concentration (FIC) value of the combination. This experimental set up, called checkerboard method, allows measurement of a desired effect (inhibition of fungal growth in this case) at different combinations of various concentrations of the two agents (antifungal agent and fatty acid/ester). […] No agent is added to the penultimate column on the right and the bottom row. The final column on the right is used for growth control (only inoculum in broth) and sterility control (broth alone, no inoculum). […] FIC value for each agent in a particular well of the checkerboard layout was calculated by dividing the agent concentration in that well by the established MIC value of the agent against the test organism (Hsieh et al., Synergy assessed by checkerboard: A critical Analysis, Diagn. Microbiol. Infect Dis. (1993) 16:343-349). FIC values for both agents in a particular well were calculated in this way followed by determination of the FIC index (sum of the FICs of each drug in the concerned well). […] Agents Chemother. (2010) 54(2): 602-609].

[4] = tested on: M. furfur (MTCC 1374); assay: Lipid assimilation in vitro assay: fatty acids/esters as nutrients for growth of M. furfur; format: cell-based, Malassezia furfur; conditions: Sabouraud dextrose agar, after 6 days
From the text: Malassezia species are lipophilic unipolar yeasts recognized as commensals of skin that may be pathogenic under certain conditions (Jindo et al 2004: Indian Journal of Medical Microbiology (22: 179). To compare lipid requirements of the fungus most closely associated with dandruff/seborrheic dermatitis, the best studied Malassezia species is M. furfur. Lipid assimilation in vitro assay was designed to investigate lipid effect on growth of M. furfur (MTCC 1374).
Briefly, Sabouraud Dextrose containing low-melt agar was melted, cooled to 38° C. Fatty acids/esters constituents eg, propylene glycol monocaprylate (C-8), capric acid (C-10), caprylic acid (C-8), linoleic acid (C-18), oleic acid (C-18), palmitic acid (C-16), ethyl oleate (C-18), and oils containing fatty acid/esters eg, coconut oil, mustard oil etc., were added to study the growth of the fungus (Kaw Bing CHUA, et al Malaysian J Pathol (2005) 27(2): 99). After solidification, agar plates were streaked with M. furfur innoculum adjusted to appropriate cfu/ml, aseptically. Positive control with 2% olive oil and negative control without fatty substance were also maintained.

[5] = tested on: terbinafine resistant Trichophyton interdigitale (GTB-2S); assay: Checkerboard assay on terbinafine resistant Trichophyton interdigitale (GTB-2S); format: cell-based; conditions: for MIC: Trichophyton interdigitale, agent alone, Table 7
Description: as §1, §2, §3

[6] = tested on: C. albicans (ATCC-90028); assay: Checkerboard assay on C. albicans (ATCC-90028); format: cell-based, Candida albicans; conditions: for MIC: Candida albicans, ATCC90028, agent alone, Table 8
Description: as §4, §2
Potentiation of the activity of antimycotic agents using ester derivatives of medium chain fatty acids was tested in a standard, well accepted in vitro assay system to check for synergy. This experimental set up, called checkerboard method, allows measurement of a desired effect (inhibition of fungal growth in this case) at different combinations of various concentrations of two agents. A chosen medium chain fatty acid (C-1 to C-14) or its ester derivative was tested for its ability to potentiate the activity of a known antifungal agent (various classes) using the checkerboard layout. Various concentrations above and below the MIC of each test agent were tested using serial dilution in Sabouraud dextrose broth. […] FIC value for a drug in a particular well of the checkerboard layout is calculated by dividing the drug concentration in that well by the established MIC value of the drug against the test organism (Hsieh et al., Synergy assessed by checkerboard: A critical Analysis, Diagn. Microbiol. Infect Dis. (1993) 16:343-349). FIC values for both test agents in a particular well are calculated in this way followed by determination of the FIC index (sum of the FICs of each drug in the concerned well).

[7] = agent's MIC in combination antifungal + caprylic acid (partner: other agent of same combination no.)
[8] = agent's MIC in combination antifungal + glyceryl monocaprylate (partner: other agent of same combination no.)
[9] = agent's MIC in combination antifungal + lauric acid (partner: other agent of same combination no.)
[10] = agent's MIC in combination antifungal + propylene glycol monolaurate (partner: other agent of same combination no.)
[11] = antifungal in combination with caprylic acid
[12] = antifungal in combination with glyceryl monocaprylate
[13] = antifungal in combination with lauric acid
[14] = antifungal in combination with propylene glycol monocaprylate
[15] = antifungal in combination with propylene glycol monolaurate
[16] = combination antifungal + caprylic acid
[17] = combination antifungal + glyceryl monocaprylate
[18] = combination antifungal + lauric acid
[19] = combination antifungal + propylene glycol monolaurate
[20] = Table 9, caprylic acid (C8) series
[21] = Table 11, glyceryl monocaprylate series
[22] = antifungal in combination with undecylenic acid

`Clc1ccccc1C(c1ccccc1)(c1ccccc1)n1ccnc1` [Clotrimazole] was tested, and the MIC ([1]; Table 1, caprylic acid series) was 0.6 µg/mL, the MIC ([1]; Table 2, propylene glycol monocaprylate series) was 0.6 µg/mL and the MIC ([1]; Table 3, glyceryl monocaprylate series) was 0.6 µg/mL. The MIC ([1]; Table 5, lauric acid (C12) series) was 0.5 µg/mL, the MIC ([1]; Table 6, propylene glycol monolaurate series) was 0.5 µg/mL and the “Combination MIC” value [1, 7] was 0.075 µg/mL. For the same compound, the “Combination MIC” value [1, 8] was 0.075 µg/mL, the “Combination MIC” value [1, 9] was 0.125 µg/mL and the “Combination MIC” value [1, 10] was 0.125 µg/mL. For the same compound, the FIC index [1, 11] was 0.375, the Interaction [1, 11] was “Synergistic (Combinations that gave FIC indices less than 1 were designated “synergistic”)” and the FIC index [1, 12] was 0.625. The Interaction [1, 12] was “Synergistic (Combinations that gave FIC indices less than 1 were designated “synergistic”)”, the FIC index [1, 13] was 0.75 and the Interaction [1, 13] was “Synergistic (Combinations that gave FIC indices less than 1 were designated “synergistic”)”. For the same compound, the Interaction [1, 14] was “Synergistic (Combinations that gave FIC indices less than 1 were designated “synergistic”)”, the FIC index [1, 15] was 0.5 and the Interaction [1, 15] was “Synergistic (Combinations that gave FIC indices less than 1 were designated “synergistic”)”. The FIC [1, 16] was 0.125, the FIC [1, 17] was 0.125 and the FIC [1, 18] was 0.25. For the same compound, the FIC [1, 19] was 0.25, the MIC [2, 20] was 8 µg/mL and the MIC ([2]; Table 10, propylene glycol monocaprylate series) was 16 µg/mL. For the same compound, the MIC [2, 21] was 16 µg/mL, the MIC ([2]; Table 12, undecylenic acid (C11) series) was 16 µg/mL and the MIC ([2]; Table 13, lauric acid (C12) series) was 8 µg/mL. The MIC ([2]; Table 14, propylene glycol monolaurate series) was 16 µg/mL, the “Combination MIC” value [2, 7] was 0.25 µg/mL and the “Combination MIC” value [2, 8] was 4 µg/mL. For the same compound, the “Combination MIC” value [2, 9] was 1 µg/mL, the “Combination MIC” value ([2]; agent's MIC in combination antifungal + propylene glycol monocaprylate (partner: other agent of same combination no.)) was 4 µg/mL and the “Combination MIC” value [2, 10] was 8 µg/mL. For the same compound, the “Combination MIC” value ([2]; agent's MIC in combination antifungal + undecylenic acid (partner: other agent of same combination no.)) was 2 µg/mL, the FIC index [2, 11] was 0.093 and the Interaction [2, 11] was “Synergistic (Combinations that gave FIC indices less than 1 were designated “synergistic”)”. For the same compound, the FIC index [2, 12] was 0.5, the Interaction [2, 12] was “Synergistic (Combinations that gave FIC indices less than 1 were designated “synergistic”)” and the FIC index [2, 13] was 0.187. The Interaction [2, 13] was “Synergistic (Combinations that gave FIC indices less than 1 were designated “synergistic”)”, the FIC index [2, 14] was 0.312 and the Interaction [2, 14] was “Synergistic (Combinations that gave FIC indices less than 1 were designated “synergistic”)”. The FIC index [2, 15] was 0.515, the Interaction [2, 15] was “Synergistic (Combinations that gave FIC indices less than 1 were designated “synergistic”)” and the FIC index [2, 22] was 0.187. For the same compound, the Interaction [2, 22] was “Synergistic (Combinations that gave FIC indices less than 1 were designated “synergistic”)”, the FIC [2, 16] was 0.031 and the FIC [2, 17] was 0.25. For the same compound, the FIC [2, 18] was 0.125, the FIC ([2]; combination antifungal + propylene glycol monocaprylate) was 0.25 and the FIC [2, 19] was 0.5. For the same compound, the FIC ([2]; combination antifungal + undecylenic acid) was 0.125 and the “combination activity (interaction) with oleic acid (C18)” value [3] was “antagonistic effect”.
For `CCCCCCCC/C=C\CCCCCCCC(=O)O` [oleic acid], the “growth of M. furfur on culture media containing the fatty acid/ester or oil” value [4] was “confluent growth”.
For `CCCCC/C=C\C/C=C\CCCCCCCC(=O)O` [linoleic acid], the “growth of M. furfur on culture media containing the fatty acid/ester or oil” value [4] was “confluent growth”.
`CCCCCCCC(=O)O` [Caprylic acid] was tested, and the MIC [5] was 15.6 µg/mL, the “Combination MIC” value ([5]; agent's MIC in combination terbinafine or butenafine + caprylic acid) was 7.812 µg/mL and the FIC ([5]; combination terbinafine or butenafine + caprylic acid) was 0.5. For the same compound, the MIC [2, 20] was 250 µg/mL, the MIC [6] was 125 µg/mL and the “Combination MIC” value ([6]; agent's MIC in combination luliconazole + caprylic acid) was 31.25 µg/mL. The FIC ([6]; combination luliconazole + caprylic acid) was 0.25 and the “growth of M. furfur on culture media containing the fatty acid/ester or oil” value [4] was “no growth”.
`CCCCCCCCCC(=O)O` [capric acid] was tested, and the “growth of M. furfur on culture media containing the fatty acid/ester or oil” value [4] was “no growth”.
In the case of `CCCCCCCCCCCCCCCC(=O)O` [palmitic acid], the “growth of M. furfur on culture media containing the fatty acid/ester or oil” value [4] is reported as “confluent growth”.
In the case of `CCCCCCCC(=O)OCC(O)CO` (stereo not drawn) [Glyceryl monocaprylate], the MIC [5] is reported as 15.6 µg/mL, the “Combination MIC” value ([5]; agent's MIC in combination terbinafine or butenafine + glyceryl monocaprylate) is reported as 7.812 µg/mL and the FIC ([5]; combination terbinafine or butenafine + glyceryl monocaprylate) is reported as 0.5. The MIC [2, 21] was 1250 µg/mL, the “Combination MIC” value [2, 8] was 312.5 µg/mL and the FIC [2, 17] was 0.25. The MIC [6] was 500 µg/mL, the “Combination MIC” value ([6]; agent's MIC in combination luliconazole + glyceryl monocaprylate) was 31.25 µg/mL and the FIC ([6]; combination luliconazole + glyceryl monocaprylate) was 0.0625.
For `CCCCCCCC/C=C\CCCCCCCC(=O)OCC` [ethyl oleate], the “growth of M. furfur on culture media containing the fatty acid/ester or oil” value [4] was “confluent growth”.
